# Assay results: US20050239656A1, “Pyridine compounds or salts thereof and herbicides containing the same” (priority 2002, published 2005)
# Tested on: barnyardgrass
# Experiment: Test Example 1: foliage treatment, upland pot test
# Type: in vivo, Echinochloa crus-galli L.
# Conditions: active ingredient 500 g/ha, observed 18th to 23rd day, 0 = non-treated, 100 = complete kill
# Method in brief: (§1)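 Applied as a post-emergence foliar spray: formulated compound diluted to 500 L/ha with spreader at 0.1% (v/v). Treatment timing—rice at 1.2–2.6, wheat at 1.3–2.4, barnyardgrass at 1.3–2.8, soybean at 0.1–0.4 leaf stage. Scored visually on a 0–100% control scale after 18–23 days.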
row,Compound,Growth controlling degree (%) Barnyardgrass [%]
1,"CC(C)C(c1cnccc1C(F)(F)F)N(C)S(=O)(=O)c1ccccc1 (centres unmarked) [I-117, N-methyl-N-[2-methyl-1-(4-trifluoromethylpyridin-3-yl)propyl]phenylsulfonamide]",80
2,CC(C)C(c1cnccc1C(F)(F)F)N(C)C(=O)Cc1cccc(C(F)(F)F)c1F (centres unmarked) [I-29],60

# Tested on: velvetleaf
# Experiment: Test Example 1: foliage treatment, upland pot test
# Type: in vivo, Abutilon theophrasti MEDIC.
# Conditions: active ingredient 500 g/ha, observed 18th to 23rd day, 0 = non-treated, 100 = complete kill
row,Compound,Growth controlling degree (%) Velvetleaf [%]
1,"CC(C)C(c1cnccc1C(F)(F)F)N(C)S(=O)(=O)c1ccccc1 (centres unmarked) [I-117, N-methyl-N-[2-methyl-1-(4-trifluoromethylpyridin-3-yl)propyl]phenylsulfonamide]",80
2,CC(C)C(c1cnccc1C(F)(F)F)N(C)C(=O)Cc1cccc(C(F)(F)F)c1F (centres unmarked) [I-29],80

# Tested on: japanese bulrush
# Experiment: Test Example 3: paddy pot test, application under submerged conditions
# Type: in vivo, Scirpus juncoides
# Conditions: active ingredient 250 g/ha; submerged application at 0.5 leaf stage; visually observed 14 days after application; 0 = non-treated, 100 = complete kill
# Method in brief: (§2)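 After sowing seeds and planting wapato tubers in flooded paddy soil, an aqueous dilution of the formulated compound was added to the 3–4 cm flood water at early leaf stage. Percent growth control relative to the untreated plot was assessed visually on day 14.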
row,Compound,Growth controlling degree (%) Japanese bulrush [%]
1,"CC(C)C(c1cnccc1C(F)(F)F)N(C)S(=O)(=O)c1ccccc1 (centres unmarked) [I-117, N-methyl-N-[2-methyl-1-(4-trifluoromethylpyridin-3-yl)propyl]phenylsulfonamide]",98
2,CC(C)C(c1cnccc1C(F)(F)F)N(C)C(=O)Cc1cccc(C(F)(F)F)c1F (centres unmarked) [I-29],70

# Tested on: rice (var. Nihonbare)
# Experiment: Test Example 3: paddy pot test, transplanted rice
# Type: in vivo, Oryza sativa L.
# Conditions: active ingredient 250 g/ha, applied 4th day after transplantation, visually observed 21st day after application, 0 = non-treated, 100 = complete kill
# Method in brief: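 Rice (2-leaf stage) was transplanted 3 cm deep into puddled, leveled paddy soil under 3–4 cm flooding. On day 4 after transplanting, diluted wettable powder or emulsifiable concentrate was pipetted onto the water at a predetermined active-ingredient dose. Growth control (0 = untreated, 100 = complete kill) was scored visually 21 days later.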
row,Compound,Growth controlling degree (%) Rice [%]
1,"CC(C)C(c1cnccc1C(F)(F)F)N(C)S(=O)(=O)c1ccccc1 (centres unmarked) [I-117, N-methyl-N-[2-methyl-1-(4-trifluoromethylpyridin-3-yl)propyl]phenylsulfonamide]",0
2,CC(C)C(c1cnccc1C(F)(F)F)N(C)C(=O)Cc1cccc(C(F)(F)F)c1F (centres unmarked) [I-29],10

# Tested on: barnyardgrass
# Experiment: Test Example 3: paddy pot test, application under submerged conditions
# Type: in vivo, Echinochloa crus-galli L.
# Conditions: active ingredient 250 g/ha; submerged application at 0.5 leaf stage; visually observed 14 days after application; 0 = non-treated, 100 = complete kill
# Method in brief: as §2
row,Compound,Growth controlling degree (%) Barnyardgrass [%]
1,"CC(C)C(c1cnccc1C(F)(F)F)N(C)S(=O)(=O)c1ccccc1 (centres unmarked) [I-117, N-methyl-N-[2-methyl-1-(4-trifluoromethylpyridin-3-yl)propyl]phenylsulfonamide]",95
2,CC(C)C(c1cnccc1C(F)(F)F)N(C)C(=O)Cc1cccc(C(F)(F)F)c1F (centres unmarked) [I-29],100

# Tested on: prickly sida
# Experiment: Test Example 1: foliage treatment, upland pot test
# Type: in vivo, Sida spinosa L.
# Conditions: active ingredient 500 g/ha, observed 18th to 23rd day, 0 = non-treated, 100 = complete kill
row,Compound,Growth controlling degree (%) Prickly sida [%]
1,"CC(C)C(c1cnccc1C(F)(F)F)N(C)S(=O)(=O)c1ccccc1 (centres unmarked) [I-117, N-methyl-N-[2-methyl-1-(4-trifluoromethylpyridin-3-yl)propyl]phenylsulfonamide]",70
2,CC(C)C(c1cnccc1C(F)(F)F)N(C)C(=O)Cc1cccc(C(F)(F)F)c1F (centres unmarked) [I-29],80

# Tested on: rice
# Experiment: Test Example 1: foliage treatment, upland pot test
# Type: in vivo, Oryza sativa L.
# Conditions: crop, active ingredient 500 g/ha, observed 18th to 23rd day, 0 = non-treated, 100 = complete kill
# Method in brief: as §1
row,Compound,Growth controlling degree (%) Rice [%]
1,"CC(C)C(c1cnccc1C(F)(F)F)N(C)S(=O)(=O)c1ccccc1 (centres unmarked) [I-117, N-methyl-N-[2-methyl-1-(4-trifluoromethylpyridin-3-yl)propyl]phenylsulfonamide]",20
2,CC(C)C(c1cnccc1C(F)(F)F)N(C)C(=O)Cc1cccc(C(F)(F)F)c1F (centres unmarked) [I-29],10

# Tested on: soybean
# Experiment: Test Example 2: soil surface treatment, upland pot test
# Type: in vivo, Glycine max Merr.
# Conditions: active ingredient 500 g/ha, observed 20th to 28th day
# Method in brief: (§3)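 Upland soil in pots of 1/170,000 ha is sown; on day 1 after sowing the formulated compound (wettable powder or emulsifiable concentrate, predetermined a.i. amount, water volume 1,500 L/ha) is applied to the soil surface with a small sprayer. Percent control is judged by eye 20–28 days later.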
row,Compound,Growth controlling degree (%) Soyabean [%]
1,"CC(C)C(c1cnccc1C(F)(F)F)N(C)S(=O)(=O)c1ccccc1 (centres unmarked) [I-117, N-methyl-N-[2-methyl-1-(4-trifluoromethylpyridin-3-yl)propyl]phenylsulfonamide]",10
2,CC(C)C(c1cnccc1C(F)(F)F)N(C)C(=O)Cc1cccc(C(F)(F)F)c1F (centres unmarked) [I-29],10

# Tested on: green foxtail
# Experiment: Test Example 1: foliage treatment, upland pot test
# Type: in vivo, Setaria viridis L.
# Conditions: active ingredient 500 g/ha, observed 18th to 23rd day, 0 = non-treated, 100 = complete kill
row,Compound,Growth controlling degree (%) Green foxtail [%]
1,"CC(C)C(c1cnccc1C(F)(F)F)N(C)S(=O)(=O)c1ccccc1 (centres unmarked) [I-117, N-methyl-N-[2-methyl-1-(4-trifluoromethylpyridin-3-yl)propyl]phenylsulfonamide]",40
2,CC(C)C(c1cnccc1C(F)(F)F)N(C)C(=O)Cc1cccc(C(F)(F)F)c1F (centres unmarked) [I-29],60

# Tested on: prickly sida
# Experiment: Test Example 2: soil surface treatment, upland pot test
# Type: in vivo, Sida spinosa L.
# Conditions: active ingredient 500 g/ha, observed 20th to 28th day
# Method in brief: as §3
row,Compound,Growth controlling degree (%) Prickly sida [%]
1,"CC(C)C(c1cnccc1C(F)(F)F)N(C)S(=O)(=O)c1ccccc1 (centres unmarked) [I-117, N-methyl-N-[2-methyl-1-(4-trifluoromethylpyridin-3-yl)propyl]phenylsulfonamide]",70
2,CC(C)C(c1cnccc1C(F)(F)F)N(C)C(=O)Cc1cccc(C(F)(F)F)c1F (centres unmarked) [I-29],98

# Tested on: japanese ribbon wapato
# Experiment: Test Example 3: paddy pot test, application under submerged conditions
# Type: in vivo, Sagittaria pygniaea
# Conditions: active ingredient 250 g/ha; submerged application at primary leaf stage; visually observed 14 days after application; 0 = non-treated, 100 = complete kill
# Method in brief: as §2
row,Compound,Growth controlling degree (%) Japanese ribbon wapato [%]
1,"CC(C)C(c1cnccc1C(F)(F)F)N(C)S(=O)(=O)c1ccccc1 (centres unmarked) [I-117, N-methyl-N-[2-methyl-1-(4-trifluoromethylpyridin-3-yl)propyl]phenylsulfonamide]",0
2,CC(C)C(c1cnccc1C(F)(F)F)N(C)C(=O)Cc1cccc(C(F)(F)F)c1F (centres unmarked) [I-29],10

# Tested on: crabgrass
# Experiment: Test Example 2: soil surface treatment, upland pot test
# Type: in vivo, Digitaria sanguinalis L.
# Conditions: active ingredient 500 g/ha, observed 20th to 28th day
# Method in brief: as §3
row,Compound,Growth controlling degree (%) Crabgrass [%]
1,"CC(C)C(c1cnccc1C(F)(F)F)N(C)S(=O)(=O)c1ccccc1 (centres unmarked) [I-117, N-methyl-N-[2-methyl-1-(4-trifluoromethylpyridin-3-yl)propyl]phenylsulfonamide]",95
2,CC(C)C(c1cnccc1C(F)(F)F)N(C)C(=O)Cc1cccc(C(F)(F)F)c1F (centres unmarked) [I-29],99

# Tested on: barnyardgrass
# Experiment: as above
# Type: in vivo, Echinochloa crus-galli L.
# Conditions: active ingredient 500 g/ha, observed 20th to 28th day
# Method in brief: as §3
row,Compound,Growth controlling degree (%) Barnyardgrass [%]
1,"CC(C)C(c1cnccc1C(F)(F)F)N(C)S(=O)(=O)c1ccccc1 (centres unmarked) [I-117, N-methyl-N-[2-methyl-1-(4-trifluoromethylpyridin-3-yl)propyl]phenylsulfonamide]",100
2,CC(C)C(c1cnccc1C(F)(F)F)N(C)C(=O)Cc1cccc(C(F)(F)F)c1F (centres unmarked) [I-29],100

# Tested on: crabgrass
# Experiment: Test Example 1: foliage treatment, upland pot test
# Type: in vivo, Digitaria sanguinalis L.
# Conditions: active ingredient 500 g/ha, observed 18th to 23rd day, 0 = non-treated, 100 = complete kill
row,Compound,Growth controlling degree (%) Crabgrass [%]
1,"CC(C)C(c1cnccc1C(F)(F)F)N(C)S(=O)(=O)c1ccccc1 (centres unmarked) [I-117, N-methyl-N-[2-methyl-1-(4-trifluoromethylpyridin-3-yl)propyl]phenylsulfonamide]",80
2,CC(C)C(c1cnccc1C(F)(F)F)N(C)C(=O)Cc1cccc(C(F)(F)F)c1F (centres unmarked) [I-29],90

# Tested on: green foxtail
# Experiment: Test Example 2: soil surface treatment, upland pot test
# Type: in vivo, Setaria viridis L.
# Conditions: active ingredient 500 g/ha, observed 20th to 28th day
# Method in brief: as §3
row,Compound,Growth controlling degree (%) Green foxtail [%]
1,"CC(C)C(c1cnccc1C(F)(F)F)N(C)S(=O)(=O)c1ccccc1 (centres unmarked) [I-117, N-methyl-N-[2-methyl-1-(4-trifluoromethylpyridin-3-yl)propyl]phenylsulfonamide]",100
2,CC(C)C(c1cnccc1C(F)(F)F)N(C)C(=O)Cc1cccc(C(F)(F)F)c1F (centres unmarked) [I-29],100

# Tested on: redroot pigweed
# Experiment: Test Example 1: foliage treatment, upland pot test
# Type: in vivo, Amaranthus retroflexus L.
# Conditions: active ingredient 500 g/ha, observed 18th to 23rd day, 0 = non-treated, 100 = complete kill
row,Compound,Growth controlling degree (%) Redroot pigweed [%]
1,"CC(C)C(c1cnccc1C(F)(F)F)N(C)S(=O)(=O)c1ccccc1 (centres unmarked) [I-117, N-methyl-N-[2-methyl-1-(4-trifluoromethylpyridin-3-yl)propyl]phenylsulfonamide]",50
2,CC(C)C(c1cnccc1C(F)(F)F)N(C)C(=O)Cc1cccc(C(F)(F)F)c1F (centres unmarked) [I-29],80

# Tested on: corn
# Experiment: Test Example 2: soil surface treatment, upland pot test
# Type: in vivo, Zea mays L.
# Conditions: active ingredient 500 g/ha, observed 20th to 28th day
# Method in brief: as §3
row,Compound,Growth controlling degree (%) Corn [%]
1,"CC(C)C(c1cnccc1C(F)(F)F)N(C)S(=O)(=O)c1ccccc1 (centres unmarked) [I-117, N-methyl-N-[2-methyl-1-(4-trifluoromethylpyridin-3-yl)propyl]phenylsulfonamide]",20
2,CC(C)C(c1cnccc1C(F)(F)F)N(C)C(=O)Cc1cccc(C(F)(F)F)c1F (centres unmarked) [I-29],20

# Tested on: soybean
# Experiment: Test Example 1: foliage treatment, upland pot test
# Type: in vivo, Glycine max Merr.
# Conditions: crop, active ingredient 500 g/ha, observed 18th to 23rd day, 0 = non-treated, 100 = complete kill
# Method in brief: as §1
row,Compound,Growth controlling degree (%) Soybean [%]
1,"CC(C)C(c1cnccc1C(F)(F)F)N(C)S(=O)(=O)c1ccccc1 (centres unmarked) [I-117, N-methyl-N-[2-methyl-1-(4-trifluoromethylpyridin-3-yl)propyl]phenylsulfonamide]",60
2,CC(C)C(c1cnccc1C(F)(F)F)N(C)C(=O)Cc1cccc(C(F)(F)F)c1F (centres unmarked) [I-29],50

# Tested on: corn
# Experiment: Test Example 1: foliage treatment, upland pot test
# Type: in vivo, Zea mays L.
# Conditions: crop, active ingredient 500 g/ha, observed 18th to 23rd day, 0 = non-treated, 100 = complete kill
# Method in brief: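 In this upland pot foliage test, corn plants at 2.1 to 3.2 leaf stages were sprayed by a small size sprayer. The spray was a conventionally formulated wettable powder or emulsifiable concentrate weighed to a set active ingredient amount, diluted in water at 500 L/ha, plus 0.1% (v/v) agricultural spreader. Visual assessment on days 18 to 23 gave growth controlling degree (%), where 0 equals untreated and 100 means complete kill.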
row,Compound,Growth controlling degree (%) Corn [%]
1,"CC(C)C(c1cnccc1C(F)(F)F)N(C)S(=O)(=O)c1ccccc1 (centres unmarked) [I-117, N-methyl-N-[2-methyl-1-(4-trifluoromethylpyridin-3-yl)propyl]phenylsulfonamide]",30
2,CC(C)C(c1cnccc1C(F)(F)F)N(C)C(=O)Cc1cccc(C(F)(F)F)c1F (centres unmarked) [I-29],10

# Tested on: velvetleaf
# Experiment: Test Example 2: soil surface treatment, upland pot test
# Type: in vivo, Abutilon theophrasti MEDIC.
# Conditions: active ingredient 500 g/ha, observed 20th to 28th day
# Method in brief: as §3
row,Compound,Growth controlling degree (%) Velvetleaf [%]
1,"CC(C)C(c1cnccc1C(F)(F)F)N(C)S(=O)(=O)c1ccccc1 (centres unmarked) [I-117, N-methyl-N-[2-methyl-1-(4-trifluoromethylpyridin-3-yl)propyl]phenylsulfonamide]",50
2,CC(C)C(c1cnccc1C(F)(F)F)N(C)C(=O)Cc1cccc(C(F)(F)F)c1F (centres unmarked) [I-29],70

# Tested on: rice
# Experiment: as above
# Type: in vivo, Oryza sativa L.
# Conditions: active ingredient 500 g/ha, observed 20th to 28th day
# Method in brief: as §3
row,Compound,Growth controlling degree (%) Rice [%]
1,"CC(C)C(c1cnccc1C(F)(F)F)N(C)S(=O)(=O)c1ccccc1 (centres unmarked) [I-117, N-methyl-N-[2-methyl-1-(4-trifluoromethylpyridin-3-yl)propyl]phenylsulfonamide]",40
2,CC(C)C(c1cnccc1C(F)(F)F)N(C)C(=O)Cc1cccc(C(F)(F)F)c1F (centres unmarked) [I-29],30

# Tested on: redroot pigweed
# Experiment: as above
# Type: in vivo, Amaranthus retroflexus L.
# Conditions: active ingredient 500 g/ha, observed 20th to 28th day
# Method in brief: as §3
row,Compound,Growth controlling degree (%) Redroot pigweed [%]
1,"CC(C)C(c1cnccc1C(F)(F)F)N(C)S(=O)(=O)c1ccccc1 (centres unmarked) [I-117, N-methyl-N-[2-methyl-1-(4-trifluoromethylpyridin-3-yl)propyl]phenylsulfonamide]",60
2,CC(C)C(c1cnccc1C(F)(F)F)N(C)C(=O)Cc1cccc(C(F)(F)F)c1F (centres unmarked) [I-29],70
